Results published in ChEMBL document CHEMBL3885881, “DrugMatrix”.

Organism: Rattus norvegicus
Assay: DrugMatrix - Regimen: Daily Repeat
Type: toxicity, organism-based, Sprague-Dawley
Set-up: regimen Daily Repeat, gender Male, age 6-8 weeks
Details: in vivo, sc, route mini-PUMP - SUBCUTANEOUS, vehicle 100 % SALINE
[1] = 2 mg/kg, 72 h, tissue Blood, dose level High, time 3 day
[2] = 2 mg/kg, 72 h, tissue Plasma, dose level High, time 3 day
[3] = 2 mg/kg, 120 h, tissue Blood, dose level High, time 5 day
[4] = 2 mg/kg, 120 h, tissue Plasma, dose level High, time 5 day
[5] = 2 mg/kg, […], tissue Blood, dose level High, time 14 day
[6] = 2 mg/kg, […], tissue Plasma, dose level High, time 14 day

## CC(C)NCC(O)c1ccc(O)c(O)c1 (centres undefined) [ISOPROTERENOL]
0 mg/kg, […], tissue Blood, dose level Control, time 14 day
  NUCLEATED RED BLOOD CELLS: 0.17 /100WBC
0 mg/kg, […], tissue Plasma, dose level Control, time 14 day
  CREATINE PHOSPHOKINASE: 262 u/L
[1]
  ABSOLUTE BASOPHIL: 95 cells/µL
  ABSOLUTE EOSINOPHIL: 95 cells/µL
  ABSOLUTE LYMPHOCYTE: 13000 cells/µL
  ABSOLUTE MONOCYTE: 420 cells/µL
  BASOPHIL: 0.5%
  EOSINOPHIL: 0.55%
  ERYTHROCYTE COUNT: 6.36 x10E6/uL
  HEMATOCRIT: 43.4%
  HEMOGLOBIN: 13 G/DL
  LEUKOCYTE COUNT: 17.82 x10E3/uL
  LYMPHOCYTE: 73.55%
  MEAN CORPUSCULAR HEMOGLOBIN: 20.5 pg
  MEAN CORPUSCULAR HEMOGLOBIN CONCENTRATION: 30.05 G/DL
  MEAN CORPUSCULAR VOLUME: 68.3 fL
  MONOCYTE: 2.35%
  NEUTROPHIL: 22.05%
  PLATELET COUNT: 1170.5 x10E3/uL
[2]
  ALANINE AMINOTRANSFERASE: 32 u/L
  ALBUMIN: 3.9 G/DL
  ALKALINE PHOSPHATASE: 349 u/L
  ASPARTATE AMINOTRANSFERASE: 75.5 u/L
  BLOOD UREA NITROGEN: 17 mg/dL
  CARBON DIOXIDE: 40.5 mmol/L
  CHLORIDE: 107 MEQ/L
  CHOLESTEROL: 87.5 mg/dL
  CREATINE PHOSPHOKINASE: 449.5 u/L
  CREATININE: 0.55 mg/dL
  GLUCOSE: 141 mg/dL
  LIPASE: 47.5 u/L
  PHOSPHORUS: 9.6 mg/dL
  POTASSIUM: 6.05 MEQ/L
  SODIUM: 150.5 MEQ/L
  TOTAL BILIRUBIN: 0.3 mg/dL
  TOTAL PROTEIN: 6.25 G/DL
  URIC ACID: 0.8 mg/dL
[3]
  ABSOLUTE BASOPHIL: 50 cells/µL
  ABSOLUTE EOSINOPHIL: 110 cells/µL
  ABSOLUTE LYMPHOCYTE: 10400 cells/µL
  ABSOLUTE MONOCYTE: 350 cells/µL
  BASOPHIL: 0.37%
  EOSINOPHIL: 0.83%
  ERYTHROCYTE COUNT: 6.25 x10E6/uL
  HEMATOCRIT: 42.73%
  HEMOGLOBIN: 12.9 G/DL
  LEUKOCYTE COUNT: 14.26 x10E3/uL
  LYMPHOCYTE: 72.93%
  MEAN CORPUSCULAR HEMOGLOBIN: 20.63 pg
  MEAN CORPUSCULAR HEMOGLOBIN CONCENTRATION: 30.17 G/DL
  MEAN CORPUSCULAR VOLUME: 68.4 fL
  MONOCYTE: 2.5%
  NEUTROPHIL: 22.8%
  PLATELET COUNT: 1375.33 x10E3/uL
[4]
  ALANINE AMINOTRANSFERASE: 41.67 u/L
  ALBUMIN: 3.77 G/DL
  ALKALINE PHOSPHATASE: 331.33 u/L
  ASPARTATE AMINOTRANSFERASE: 78 u/L
  BLOOD UREA NITROGEN: 15.33 mg/dL
  CARBON DIOXIDE: 39.67 mmol/L
  CHLORIDE: 108 MEQ/L
  CHOLESTEROL: 85.67 mg/dL
  CREATINE PHOSPHOKINASE: 183 u/L
  CREATININE: 0.57 mg/dL
  GLUCOSE: 168.33 mg/dL
  LIPASE: 99 u/L
  PHOSPHORUS: 10.23 mg/dL
  POTASSIUM: 5.97 MEQ/L
  SODIUM: 150 MEQ/L
  TOTAL BILIRUBIN: 0.33 mg/dL
  TOTAL PROTEIN: 6.03 G/DL
  URIC ACID: 1 mg/dL
[5]
  ABSOLUTE BASOPHIL: 60 cells/µL
  ABSOLUTE EOSINOPHIL: 110 cells/µL
  ABSOLUTE LYMPHOCYTE: 11600 cells/µL
  ABSOLUTE MONOCYTE: 300 cells/µL
  BASOPHIL: 0.42%
  EOSINOPHIL: 0.72%
  ERYTHROCYTE COUNT: 6.69 x10E6/uL
  HEMATOCRIT: 44.4%
  HEMOGLOBIN: 14.28 G/DL
  LEUKOCYTE COUNT: 14.87 x10E3/uL
  LYMPHOCYTE: 78.08%
  MEAN CORPUSCULAR HEMOGLOBIN: 21.3 pg
  MEAN CORPUSCULAR HEMOGLOBIN CONCENTRATION: 32.12 G/DL
  MEAN CORPUSCULAR VOLUME: 66.4 fL
  MONOCYTE: 1.94%
  NEUTROPHIL: 18.22%
  PLATELET COUNT: 1074.6 x10E3/uL
[6]
  ALANINE AMINOTRANSFERASE: 40.6 u/L
  ALBUMIN: 4 G/DL
  ALKALINE PHOSPHATASE: 424.4 u/L
  ASPARTATE AMINOTRANSFERASE: 98.2 u/L
  BLOOD UREA NITROGEN: 19.2 mg/dL
  CARBON DIOXIDE: 38.8 mmol/L
  CHLORIDE: 105.8 MEQ/L
  CHOLESTEROL: 73.4 mg/dL
  CREATINE PHOSPHOKINASE: 274.2 u/L
  CREATININE: 0.8 mg/dL
  GLUCOSE: 132 mg/dL
  LACTATE DEHYDROGENASE: 214.4 u/L
  LIPASE: 11.8 u/L
  PHOSPHORUS: 9.98 mg/dL
  POTASSIUM: 6.02 MEQ/L
  SODIUM: 149.2 MEQ/L
  TOTAL BILIRUBIN: 0.36 mg/dL
  TOTAL PROTEIN: 6.46 G/DL
  URIC ACID: 0.62 mg/dL
[…], 72 h, tissue Blood, dose 4.2 mg/Kg, dose level M1, time 3 day
  ABSOLUTE BASOPHIL: 0 CELLS/uL
